The term Kd denotes the free concentration of one partner at which half of the binding sites on the other are occupied at equilibrium, for simple one-to-one binding.

The subject of one assay is FA19 mtrD::kan (KH14). On the set-up: method as in PMID 31744915. As to conditions: cited from earlier work.
For another assay, the target named is T1, MtrR W136A (Neisseria gonorrhoeae, UniProt P39897, W136A).
T1 construct: Hexa-histidine tag with TEV protease cleavage site (N, cleaved yes); made in house; host or cells: E. coli Rosetta Gami B(DE3) pLysS
Put plainly: biochemical. Format: binding.

T1 sequence (P39897 whole entry W136A): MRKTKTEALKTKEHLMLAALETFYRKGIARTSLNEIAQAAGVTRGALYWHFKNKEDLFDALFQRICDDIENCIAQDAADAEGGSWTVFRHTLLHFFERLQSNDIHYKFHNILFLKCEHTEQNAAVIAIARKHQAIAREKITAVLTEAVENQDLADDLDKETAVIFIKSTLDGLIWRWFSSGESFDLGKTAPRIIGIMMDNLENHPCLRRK

For the compound `CC(=O)[C@H]1CC[C@H]2[C@@H]3CCC4=CC(=O)CC[C@]4(C)[C@H]3CC[C@]12C` [Progesterone, progesterone], the “change of MIC by mutations of the mtrD gene” value in the assay with FA19 mtrD::kan (KH14) is recorded as “significant decrease”. `C[C@]12CC[C@H]3[C@@H](CCC4=CC(=O)CC[C@@]43C)[C@@H]1CC[C@@H]2O` [Testosterone, testosterone] gave a dissociation constant (Kd) at MtrR W136A of 5.79 ± 1.4 µM. Same read-out and setting: as for `C[C@]12CC[C@@H]3c4ccc(O)cc4CC[C@H]3[C@@H]1CC[C@@H]2O` [β-Estradiol, β-estradiol], the figure is 1.06 ± 0.04 µM.

Source of the values: PMC10850145, “Hormonal steroids induce multidrug resistance and stress response genes in Neisseria gonorrhoeae by binding to MtrR” (Nature Communications, 2024).
